Results taken from ChEMBL document CHEMBL5131407, “Design, synthesis and activity evaluation of prodrug form JBP485 and Vitamin E for alleviation of NASH” (Bioorg Med Chem Lett, 2022).
The source made the active and inactive calls.

Key:
Type in all cases: functional, organism-based
Mus musculus [1] = test: Anti-NASH activity in CCl4-induced nonalcoholic steatohepatitis C57BL mouse assessed as reduction in total cholesterol level at 100 mg/kg administered for 14 days; details: time 14.0 day
Mus musculus [2] = test: Anti-NASH activity in CCl4-induced nonalcoholic steatohepatitis C57BL mouse assessed as reduction in liver index at 100 mg/kg
Mus musculus [3] = test: Anti-NASH activity in CCl4-induced nonalcoholic steatohepatitis C57BL mouse assessed as reduction in LDH level at 100 mg/kg
Mus musculus [4] = test: Anti-NASH activity in CCl4-induced nonalcoholic steatohepatitis C57BL mouse at 100 mg/kg by Oil red-O staining based assay
Mus musculus [5] = test: Anti-NASH activity in CCl4-induced nonalcoholic steatohepatitis C57BL mouse assessed as reduction in HYP content in liver at 100 mg/kg administered for 14 days; details: time 14.0 day
Mus musculus [6] = test: Anti-NASH activity in CCl4-induced nonalcoholic steatohepatitis C57BL mouse assessed as decrease in IL-17A expression at 100 mg/kg by flow cytometry; details: time 14.0 day
Mus musculus [7] = test: Anti-NASH activity in CCl4-induced nonalcoholic steatohepatitis C57BL mouse assessed as reduction in liver lobular inflammation at 100 mg/kg by H and E staining based assay
Mus musculus [8] = test: Anti-NASH activity in CCl4-induced nonalcoholic steatohepatitis C57BL mouse assessed as reduction in steatosis at 100 mg/kg by H and E staining based assay
Mus musculus [9] = test: Anti-NASH activity in CCl4-induced nonalcoholic steatohepatitis C57BL mouse assessed as reduction in malondialdehyde level at 100 mg/kg administered for 14 days; details: time 14.0 day
Mus musculus [10] = test: Anti-NASH activity in CCl4-induced nonalcoholic steatohepatitis C57BL mouse assessed as reduction in serum AST level at 100 mg/kg
Mus musculus [11] = test: Anti-NASH activity in CCl4-induced nonalcoholic steatohepatitis C57BL mouse assessed as reduction in liver fibrosis at 100 mg/kg by sirius red staining based assay
Mus musculus [12] = test: Anti-NASH activity in CCl4-induced nonalcoholic steatohepatitis C57BL mouse assessed as decrease in IFN expression at 100 mg/kg by flow cytometry; details: time 14.0 day
Mus musculus [13] = test: Anti-NASH activity in CCl4-induced nonalcoholic steatohepatitis C57BL mouse assessed as reduction in liver ballooning degeneration at 100 mg/kg by H and E staining based assay
Mus musculus [14] = test: Anti-NASH activity in CCl4-induced nonalcoholic steatohepatitis C57BL mouse assessed as reduction in triglyceride level at 100 mg/kg administered for 14 days; details: time 14.0 day
Mus musculus [15] = test: Anti-NASH activity in CCl4-induced nonalcoholic steatohepatitis C57BL mouse assessed as decrease in IL-2 expression at 100 mg/kg by flow cytometry; details: time 14.0 day
Mus musculus [16] = test: Anti-NASH activity in CCl4-induced nonalcoholic steatohepatitis C57BL mouse assessed as reduction in serum ALT level at 100 mg/kg
Mus musculus [17] = test: Anti-NASH activity in CCl4-induced nonalcoholic steatohepatitis C57BL mouse assessed as reduction in liver ballooning degeneration at 60 mg/kg checked in presence of 30 to 100 mg/kg JBP485 by H and E staining based assay
Mus musculus [18] = test: Anti-NASH activity in CCl4-induced nonalcoholic steatohepatitis C57BL mouse assessed as reduction in malondialdehyde level at 60 mg/kg checked in presence of JBP485
Mus musculus [19] = test: Anti-NASH activity in CCl4-induced nonalcoholic steatohepatitis C57BL mouse assessed as reduction in liver lobular inflammation at 60 mg/kg by H and E staining based assay
Mus musculus [20] = test: Anti-NASH activity in CCl4-induced nonalcoholic steatohepatitis C57BL mouse assessed as reduction in malondialdehyde level at 60 mg/kg
Mus musculus [21] = test: Anti-NASH activity in CCl4-induced nonalcoholic steatohepatitis C57BL mouse assessed as reduction in steatosis at 60 mg/kg by H and E staining based assay
Mus musculus [22] = test: Anti-NASH activity in CCl4-induced nonalcoholic steatohepatitis C57BL mouse assessed as reduction in triglyceride level at 60 mg/kg checked in presence of JBP485
Mus musculus [23] = test: Anti-NASH activity in CCl4-induced nonalcoholic steatohepatitis C57BL mouse assessed as reduction in steatosis at 60 mg/kg checked in presence of 30 to 100 mg/kg JBP485 by H and E staining based assay
Mus musculus [24] = test: Anti-NASH activity in CCl4-induced nonalcoholic steatohepatitis C57BL mouse assessed as reduction in LDH level at 60 mg/kg checked in presence of JBP485
Mus musculus [25] = test: Anti-NASH activity in CCl4-induced nonalcoholic steatohepatitis C57BL mouse assessed as decrease in IFN expression at 60 mg/kg checked in presence of JBP485 by flow cytometry; details: time 14.0 day
Mus musculus [26] = test: Anti-NASH activity in CCl4-induced nonalcoholic steatohepatitis C57BL mouse assessed as decrease in IL-2 expression at 60 mg/kg checked in presence of JBP485 by flow cytometry; details: time 14.0 day
Mus musculus [27] = test: Anti-NASH activity in CCl4-induced nonalcoholic steatohepatitis C57BL mouse assessed as reduction in total cholesterol level at 60 mg/kg
Mus musculus [28] = test: Anti-NASH activity in CCl4-induced nonalcoholic steatohepatitis C57BL mouse assessed as reduction in total cholesterol level at 60 mg/kg checked in presence of JBP485
Mus musculus [29] = test: Anti-NASH activity in CCl4-induced nonalcoholic steatohepatitis C57BL mouse assessed as reduction in liver fibrosis at 60 mg/kg checked in presence of 30 to 100 mg/kg JBP485 by sirius red staining based assay
Mus musculus [30] = test: Anti-NASH activity in CCl4-induced nonalcoholic steatohepatitis C57BL mouse assessed as reduction in liver ballooning degeneration at 60 mg/kg by H and E staining based assay
Mus musculus [31] = test: Anti-NASH activity in CCl4-induced nonalcoholic steatohepatitis C57BL mouse at 60 mg/kg by Oil red-O staining based assay
Mus musculus [32] = test: Anti-NASH activity in CCl4-induced nonalcoholic steatohepatitis C57BL mouse assessed as reduction in liver index at 60 mg/kg checked in presence of 30 to 100 mg/kg JBP485
Mus musculus [33] = test: Anti-NASH activity in CCl4-induced nonalcoholic steatohepatitis C57BL mouse assessed as reduction in liver index at 60 mg/kg
Mus musculus [34] = test: Anti-NASH activity in CCl4-induced nonalcoholic steatohepatitis C57BL mouse assessed as reduction in serum AST level at 60 mg/kg checked in presence of 30 to 100 mg/kg JBP485
Mus musculus [35] = test: Anti-NASH activity in CCl4-induced nonalcoholic steatohepatitis C57BL mouse assessed as reduction in liver lobular inflammation at 60 mg/kg checked in presence of 30 to 100 mg/kg JBP485 by H and E staining based assay
Mus musculus [36] = test: Anti-NASH activity in CCl4-induced nonalcoholic steatohepatitis C57BL mouse assessed as decrease in IL-17A expression at 60 mg/kg checked in presence of JBP485 by flow cytometry; details: time 14.0 day
Mus musculus [37] = test: Anti-NASH activity in CCl4-induced nonalcoholic steatohepatitis C57BL mouse assessed as reduction in serum ALT level at 60 mg/kg checked in presence of 30 to 100 mg/kg JBP485
Mus musculus [38] = test: Anti-NASH activity in CCl4-induced nonalcoholic steatohepatitis C57BL mouse at 60 mg/kg checked in presence of 30 to 100 mg/kg JBP485 by Oil red-O staining based assay
Mus musculus [39] = test: Anti-NASH activity in CCl4-induced nonalcoholic steatohepatitis C57BL mouse assessed as reduction in liver fibrosis at 60 mg/kg by sirius red staining based assay
Mus musculus [40] = test: Anti-NASH activity in CCl4-induced nonalcoholic steatohepatitis C57BL mouse assessed as reduction in triglyceride level at 60 mg/kg
Mus musculus [41] = test: Anti-NASH activity in CCl4-induced nonalcoholic steatohepatitis C57BL mouse assessed as reduction in liver ballooning degeneration at 30 to 100 mg/kg checked in presence of vitamin E by H and E staining based assay; details: dose 30-100 mg/kg
Mus musculus [42] = test: Anti-NASH activity in CCl4-induced nonalcoholic steatohepatitis C57BL mouse assessed as reduction in steatosis at 30 to 100 mg/kg checked in presence of vitamin E by H and E staining based assay; details: dose 30-100 mg/kg
Mus musculus [43] = test: Anti-NASH activity in CCl4-induced nonalcoholic steatohepatitis C57BL mouse assessed as reduction in serum AST level at 30 to 100 mg/kg checked in presence of vitamin E; details: dose 30-100 mg/kg
Mus musculus [44] = test: Anti-NASH activity in CCl4-induced nonalcoholic steatohepatitis C57BL mouse assessed as reduction in liver index at 30 to 100 mg/kg checked in presence of 60 mg/kg vitamin E; details: dose 30-100 mg/kg
Mus musculus [45] = test: Anti-NASH activity in CCl4-induced nonalcoholic steatohepatitis C57BL mouse assessed as reduction in malondialdehyde level at 30 mg/kg checked in presence of vitamin E
Mus musculus [46] = test: Anti-NASH activity in CCl4-induced nonalcoholic steatohepatitis C57BL mouse assessed as decrease in IL-17A expression at 30 mg/kg checked in presence of vitamin E by flow cytometry; details: time 14.0 day
Mus musculus [47] = test: Anti-NASH activity in CCl4-induced nonalcoholic steatohepatitis C57BL mouse assessed as decrease in IFN expression at 100 mg/kg checked in presence of vitamin E by flow cytometry; details: time 14.0 day
Mus musculus [48] = test: Anti-NASH activity in CCl4-induced nonalcoholic steatohepatitis C57BL mouse assessed as reduction in serum ALT level at 30 to 100 mg/kg checked in presence of vitamin E; details: dose 30-100 mg/kg
Mus musculus [49] = test: Anti-NASH activity in CCl4-induced nonalcoholic steatohepatitis C57BL mouse at 30 to 100 mg/kg checked in presence of vitamin E by Oil red-O staining based assay; details: dose 30-100 mg/kg
Mus musculus [50] = test: Anti-NASH activity in CCl4-induced nonalcoholic steatohepatitis C57BL mouse assessed as reduction in triglyceride level at 30 mg/kg checked in presence of vitamin E
Mus musculus [51] = test: Anti-NASH activity in CCl4-induced nonalcoholic steatohepatitis C57BL mouse assessed as reduction in total cholesterol level at 30 mg/kg checked in presence of vitamin E
Mus musculus [52] = test: Anti-NASH activity in CCl4-induced nonalcoholic steatohepatitis C57BL mouse assessed as reduction in liver fibrosis at 30 to 100 mg/kg checked in presence of vitamin E by sirius red staining based assay; details: dose 30-100 mg/kg
Mus musculus [53] = test: Anti-NASH activity in CCl4-induced nonalcoholic steatohepatitis C57BL mouse assessed as reduction in LDH level at 100 mg/kg checked in presence of vitamin E
Mus musculus [54] = test: Anti-NASH activity in CCl4-induced nonalcoholic steatohepatitis C57BL mouse assessed as reduction in liver lobular inflammation at 30 to 100 mg/kg checked in presence of vitamin E by H and E staining based assay; details: dose 30-100 mg/kg
Mus musculus [55] = test: Anti-NASH activity in CCl4-induced nonalcoholic steatohepatitis C57BL mouse assessed as decrease in IL-2 expression at 30 mg/kg checked in presence of vitamin E by flow cytometry; details: time 14.0 day

Measured: Activity

Cc1c(C)c2c(c(C)c1OC(=O)CCC(=O)O[C@@H]1C[C@H]3C(=O)N[C@@H](CO)C(=O)N3C1)CC[C@@](C)(CCC[C@H](C)CCC[C@H](C)CCCC(C)C)O2
active: Mus musculus [1] | Mus musculus [2] | Mus musculus [3] | Mus musculus [4] | Mus musculus [5] | Mus musculus [6] | Mus musculus [7] | Mus musculus [8] | Mus musculus [9] | Mus musculus [10] | Mus musculus [11] | Mus musculus [12] | Mus musculus [13] | Mus musculus [14] | Mus musculus [15] | Mus musculus [16]

VITAMIN E
active: Mus musculus [17] | Mus musculus [18] | Mus musculus [19] | Mus musculus [20] | Mus musculus [21] | Mus musculus [22] | Mus musculus [23] | Mus musculus [24] | Mus musculus [25] | Mus musculus [26] | Mus musculus [27] | Mus musculus [28] | Mus musculus [29] | Mus musculus [30] | Mus musculus [31] | Mus musculus [32] | Mus musculus [33] | Mus musculus [34] | Mus musculus [35] | Mus musculus [36] | Mus musculus [37] | Mus musculus [38] | Mus musculus [39] | Mus musculus [40]

O=C1N[C@@H](CO)C(=O)N2C[C@H](O)C[C@@H]12
active: Mus musculus [1] | Mus musculus [41] | Mus musculus [2] | Mus musculus [4] | Mus musculus [7] | Mus musculus [42] | Mus musculus [8] | Mus musculus [9] | Mus musculus [11] | Mus musculus [13] | Mus musculus [43] | Mus musculus [14] | Mus musculus [44] | Mus musculus [45] | Mus musculus [46] | Mus musculus [47] | Mus musculus [48] | Mus musculus [49] | Mus musculus [50] | Mus musculus [51] | Mus musculus [52] | Mus musculus [53] | Mus musculus [54] | Mus musculus [55]
